Laboratory results published in US5945436A, “Pyridylmethyl nitriles, amides and thioamides useful as fungicides” (Uniroyal Chemical Company, Inc., priority 1997, dated 1999).

Assays:
Erysiphe graminis [1] = assay: Powdery mildew of barley, systemic root uptake (BMS); type: in vivo; settings: 45 ml of 250 mg/l, 8 days after inoculation
How it was run: (§1)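 Pot soil of barley (BMS) and cucumber (CMS) plants was drenched with 45 ml of a 250 mg/l acetone/Tween 20 aqueous emulsion, with untreated plants as controls. Disease was scored on a rating scale that included intermediate grades.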

Erysiphe cichoracearum = assay: Powdery mildew of cucumber, systemic root uptake (CMS); type: in vivo; settings: 45 ml of 250 mg/l, 8 days after inoculation
How it was run: as §1

Uromyces phaseoli = assay: Bean rust fungus eradicant test (URO PHA); type: in vivo; settings: pinto bean, eradicant spray 2 days after inoculation, 1,000 mg/l; for pest or weed control at 1000 µg/mL: Uromyces phaseoli, 216 h, read-out: Percent Reduction of Disease, URO PHA
How it was run: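 Seven-day-old pinto bean plants (Phaseolus vulgaris, primary leaf) were inoculated with 20,000 spores/ml, held 24 h at 99% humidity and 21° C., then sprayed two days post-inoculation with acetone/TWEEN 20 emulsions at 1,000 mg/l. After nine days in a 21° C. greenhouse, disease was scored as percent reduction versus unsprayed controls.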

Erysiphe polygoni = assay: Powdery mildew on pinto bean, foliar application (ERY POL); type: in vivo; settings: similar procedure as barley (1,000 mg/l); for pest or weed control at 1000 µg/mL: Erysiphe polygoni, read-out: Percent Reduction of Disease, ERY POL
How it was run: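 Pinto bean plants sprayed with compound emulsion (acetone or inert solvent, TWEEN 20, water) at 1,000 mg/l, or left unsprayed, dried, then inoculated with Erysiphe polygoni spores in a 21° C greenhouse. Disease scored; percent control computed against untreated controls.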

Erysiphe graminis [2] = assay: Powdery mildew in barley, foliar application (ERY GRA); type: in vivo; settings: foliar, 1,000 mg/l, 8 days after inoculation; for pest or weed control at 1000 µg/mL: Blumeria graminis, foliar, 192 h, read-out: Percent Reduction of Disease, ERY GRA
How it was run: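 'Robust' barley plants sprayed with acetone/TWEEN 20 aqueous emulsion at 1,000 mg/l, dried, then kept at 21° C in a greenhouse. Inoculated by distributing Erysiphe graminis spores from infected plants. Percent control computed from disease scores vs unsprayed control pots.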

Septoria nodorum = assay: Fungal growth inhibition, treated disc on agar (SEP NOD); type: cell-based; settings: disc dipped in 500 mg/l, 29° C.; for inhibition at 500 µg/mL: Parastagonospora nodorum, read-out: Percent Growth Inhibition, SEP NOD
Rhizoctonia solani = assay: Fungal growth inhibition, treated disc on agar (RHI SOL); type: cell-based; settings: disc dipped in 500 mg/l, 29° C.; for inhibition at 500 µg/mL: Rhizoctonia solani, read-out: Percent Growth Inhibition, RHI SOL
Fusarium oxysporum = assay: Fungal growth inhibition, treated disc on agar (FUS OXY); type: cell-based; settings: disc dipped in 500 mg/l, 29° C.; for inhibition at 500 µg/mL: Fusarium oxysporum, read-out: Percent Growth Inhibition, FUS OXY

SMILES | Percent Reduction of Disease, BMS (Erysiphe graminis [1]) | Percent Reduction of Disease, CMS (Erysiphe cichoracearum) | pest or weed control at 1000 µg/mL (Uromyces phaseoli) | pest or weed control at 1000 µg/mL (Erysiphe polygoni) | pest or weed control at 1000 µg/mL (Erysiphe graminis [2]) | inhibition at 500 µg/mL (Septoria nodorum) | inhibition at 500 µg/mL (Rhizoctonia solani) | inhibition at 500 µg/mL (Fusarium oxysporum) | Percent Reduction of Disease, URO PHA (Uromyces phaseoli) | Percent Reduction of Disease, ERY POL (Erysiphe polygoni) | Percent Reduction of Disease, ERY GRA (Erysiphe graminis [2]) | Percent Growth Inhibition, SEP NOD (Septoria nodorum) | Percent Growth Inhibition, RHI SOL (Rhizoctonia solani) | Percent Growth Inhibition, FUS OXY (Fusarium oxysporum)
CC(C)=CCC(C#N)(CCc1ccccc1)c1cccnc1 (stereo not drawn) [Compound 8] | 45% | 0% | 80% | 99% | 100% | 25% | 45% | 0% |  |  |  |  |  | 
CCCC(C#N)(CCc1ccccc1)c1cccnc1 (stereo not drawn) [Compound 1] | 60% | 0% | 60% | 95% | 100% | 0% | 95% | 97% |  |  |  |  |  | 
C=CCC(C#N)(CCc1ccc(OCC)cc1)c1cccnc1 (stereo not drawn) [Compound 40] | 0% | 0% | 17% | 92% | 67% | 100% | 0% | 100% |  |  |  |  |  | 
CCCC(C#N)(CCc1ccc(F)cc1)c1cccnc1 (stereo not drawn) [Compound 10] | 84% | 88% | 100% | 99% | 100% | 80% | 96% | 97% |  |  |  |  |  | 
C#CCC(C#N)(CCc1ccc(OC)cc1)c1cccnc1 (stereo not drawn) [Compound 38] | 0% | 0% | 0% | 92% | 83% | 100% | 0% | 100% |  |  |  |  |  | 
N#CC(CCF)(CCc1ccc(F)cc1)c1cccnc1 (stereo not drawn) [Compound 53] | 100% | 0% | 0% | 90% | 100% | 100% | 75% | 100% |  |  |  |  |  | 
CCCC(C#N)(CCCc1ccc(Cl)cc1)c1cccnc1 (stereo not drawn) [Compound 12] | 40% | 40% | 100% | 95% | 100% | 70% | 98% | 80% |  |  |  |  |  | 
CCCCC(C#N)(CCc1ccccc1C(F)(F)F)c1cccnc1 (stereo not drawn) [Compound 73] | 100% | 0% | 100% | 100% | 100% | 70% | 34% | 75% |  |  |  |  |  | 
CCCCCCC(C#N)(Cc1ccc(C(C)(C)C)cc1)c1cccnc1 (stereo not drawn) [Compound 16] | 0% | 0% | 0% | 100% | 85% | 45% | 25% | 5% |  |  |  |  |  | 
C#CCC(CCc1ccccc1)(C(N)=S)c1cccnc1 (stereo not drawn) [Compound 61, α-(2-phenylethyl)-α-(2-propynyl)-3-pyridinethanethioamide] | 20% | 40% | 0% | 100% | 100% | 20% | 80% | 100% |  |  |  |  |  | 
C=CCC(C#N)(CCc1ccccc1F)c1cccnc1 (stereo not drawn) [Compound 67] | 100% | 20% | 50% | 100% | 100% | 100% | 40% | 100% |  |  |  |  |  | 
N#CC(CCCc1ccc(Cl)cc1)(CC1CC1)c1ccccn1 (stereo not drawn) [Compound 32] | 0% | 0% |  |  |  |  |  |  | 85% | 100% | 100% | 89% | 0% | 100%
